Results on 3 molecules are retold here after paper PMC3955178, “Structural characterization of a hypothetical protein: a potential agent involved in trimethylamine metabolism in Catenulispora acidiphila” (Journal of Structural and Functional Genomics, 2014).

Series [1] deals with T1, Caci_0382 (Catenulispora acidiphila, UniProt C7PVH9).
T1 construct: homodimer
T1 sequence (C7PVH9 1-134): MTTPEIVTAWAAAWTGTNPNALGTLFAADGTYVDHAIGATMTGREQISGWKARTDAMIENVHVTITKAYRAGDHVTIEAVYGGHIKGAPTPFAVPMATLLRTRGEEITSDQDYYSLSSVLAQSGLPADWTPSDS
Put plainly: fluorescence thermal shift (Sypro Orange). The format is binding. Particulars: 20 mM Hepes pH 7.5, 150 mM NaCl; 14 μM protein; printed as Tm but evidently the Tm shift; unit and concentration not given; in °C (unit assumed).

For series [2], the target named is T1, Caci_0382. Put plainly: fluorescence thermal shift (Sypro Orange). The format is binding. Particulars: read-out: Tm shift at 0.1 mM.
Series [3] concerns the molecule itself. Put plainly: SEC; gel-filtration chromatography, data not shown. In general terms: Size exclusion chromatography separates by hydrodynamic size, large species first.

As for `c1c[nH]cn1` [Imidazole], the Tm in series [1] was determined as 10.26. Regarding `CN(C)C` [TMA, trimethylamine], the ΔTm at 100 µM in series [2] was determined as 3 °C.

B1: Caci_0382 from Catenulispora acidiphila DSM 44928 (natural protein)
chain: T1 sequence (C7PVH9 1-134)
modifications: selenomethionine-labeled
notes: Caci_0382, hypothetical protein of the NTF2-like family, Catenulispora acidiphila DSM 44928; the gene encodes a 134 amino-acid protein of 14.3 kDa; Subcloned in the pMCSG57 vector, which adds a 6 His-Tag at the N-terminus; 131 Calpha atoms per subunit were aligned between the two crystal forms; also called hypothetical protein Caci_0382
What is called stoichiometry N is a count of units in the complex or per binding partner. Consider B1, for which the “stoichiometry N” value in series [3] is 2.
